# Results reported in patent US20090036507A1, “BIS (CYANOPHENYL) METHYL-TRIAZOLE FOR USE IN PREVENTION OF BREAST CANCER” (priority 2001, published 2009).
# Tests used:
# [1] = test system: estrogen receptor (ER), progesterone receptor (PR), cyclin D1 and proliferating cell nuclear antigen (PCNA); test: Western blot of ER, PR, cyclin D1 and PCNA protein levels in mammary tissues; assay type: in vivo, mice; details: 5 μg
# Experimental: (§1) Aged (about 16-20 weeks old) virgin aromatase transgenic females were used to investigate the effect of the aromatase inhibitor, COMPOUND I, as a chemopreventive agent against the preneoplastic and neoplastic changes induced in mammary glands of these mice. In this study, age-matched transgenic females were divided into four groups, one group (n=10) served as control group, the other groups received daily s.c. injection of COMPOUND I and three different doses; 0.25, 05, 1.0 μg COMPOUND I per animal in 100 μl of 0.3% hydroxy propyl cellulose (in phospate buffered saline). Control animals were given s.c. injection of vehicle. COMPOUND I was a gift from Drs. Ajay Bhatnagar and Dean Evans of Novartis Pharma (Basel, Switzerland). At the end of the 6-week treatment, mammary glands were removed and one gland each was used for histological analysis. All other glands were pooled then used for biochemical analysis as described below. Along with the mammary glands, uterus and ovaries was collected for biochemical and histological analyses.
# (§2) To isolate proteins from mammary gland and uterine tissue of both control and COMPOUND I-treated aromatase animals, the tissues were homogenized in lysis buffer. Equal amounts (60 ug) of protein from each sample was separated on a denaturing polyacrylamide gel and transferred to a nylon membrane. […]
# [2] = test system: aromatase transgenic mice; details: 5 μg/mouse/daily, previous studies; cited from earlier work
# [3] = test system: follicle stimulating hormone; test: Serum FSH levels (double antibody radioimmunoassay); assay type: in vivo, mice
# Excerpt: as §1, with “[…]; […]” for “other groups received daily s.c. injection of COMPOUND I and three different doses; 0.25, 05, 1.0 μg COMPOUND I per animal in 100 μl of 0.3% hydroxy”
# Blood from both control and COMPOUND I-treated groups was collected by cardiac puncture directly before harvesting tissues. Serum concentrations of estradiol were measured by double antibody radioimmunoassay using commercially available reagents (Diagnostic Products Corp., Los Angeles, Calif.). […] FSH levels were measured using a standard double antibody radioimmunoassay. […] Differences in mean estradiol or FSH levels were compared, and significance was determined using paired Student's t-test.
# [4] = test system: aromatase transgenic mice; test: Effect on uterus and ovary histo-morphological features / normal endocrinological functions; assay type: in vivo
# Experimental: The skin containing the mammary fat pads was fixed in 10% neutral buffered formalin for at least 24 h. The mammary glands were then dissected free from skin and processed for histological examinations (D. Medina, Preneoplastic lesions in mouse mammary tumorigenesis, Methods Cancer Res. 7 (1973) 3-53. 514). Routine section of mammary tissues, uterus and ovary were prepared after fixation by embedding in paraf.n, sectioning at 5 μM, and staining with H&E. To immunolocalize aromatase expression, 5 μM thick sections of aromatase and nontransgenic mammary gland tissue were used. After deparaffination and rehydration in xylene and ethanol, nonspecific sites were blocked by incubating with 1% normal goat serum in 0.05M Tris-HCl buffer. After decanting the reagents, the sections were covered with rabbit polyclonal antibody to rat aromatase synthetic peptide in 1:100 dilution (aromatase antibody was obtained from Dr. Evan Simpson, University of Texas Southwestern Medical Center, Dallas, Tex.; currently at Prince Henry's Institute, Clayton, Vic., Australia). The samples were incubated overnight at 4° C. in a humidied chamber. After three washings with 0.05M Tris-HCl buffer, the slides were incubated with alkaline phosphate conjugated secondary antibody for 30 min at room temperature and washings were repeated and sections were incubated with 1% fast red/naphthol AS phospate solution for 5 min. Sections were washed again and cover slipped and staining pattern was observed using light microscope.
# Aged (about 16-20 weeks old) virgin aromatase transgenic females were used to investigate the effect of the aromatase inhibitor, COMPOUND I, as a chemopreventive agent against the preneoplastic and neoplastic changes induced in mammary glands of these mice. In this study, age-matched transgenic females were divided into four groups, one group (n=10) served as control group, the other groups received daily s.c. injection of COMPOUND I and three different doses; 0.25, 05, 1.0 μg COMPOUND I per animal in 100 μl of 0.3% hydroxy propyl cellulose (in phospate buffered saline). […]
# [5] = test system: estradiol; test: Serum estradiol levels (double antibody radioimmunoassay); assay type: in vivo, mice; details: for circulating estrogen (estradiol) level: control 12.5 pg/ml, no significant difference
# Experimental: as §1
# Blood from both control and COMPOUND I-treated groups was collected by cardiac puncture directly before harvesting tissues. Serum concentrations of estradiol were measured by double antibody radioimmunoassay using commercially available reagents (Diagnostic Products Corp., Los Angeles, Calif.). […] Assaying increasing volumes of serum from 50 to 200 μl produced a displacement line parallel to the standard curve. Intra-assay and inter assay coefficients of variation averaged <10.0 and 6.7%, respectively. FSH levels were measured using a standard double antibody radioimmunoassay. Purified FSH obtained from NIH hormone resource was used as a standard. Differences in mean estradiol or FSH levels were compared, and significance was determined using paired Student's t-test.
# [6] = test system: lactoferrin, ER, and PR; test: Western blot of lactoferrin, ER and PR protein levels in uterus tissue; assay type: in vivo, mice; details: 1.0 μg per day per animal
# Experimental: as §1, §2
smiles,measurement,setting,value
N#Cc1ccc(C(c2ccc(C#N)cc2)n2cncn2)cc1 [COMPOUND I],"level of PCNA, reduction",[1],50%
same,effect on normal endocrinological functions,[2],affected some normal endocrinological functions
same,circulating FSH level,"[3]; 0.5 μg, no significant difference to control",200 ng/mL
same,circulating FSH level,"[3]; 5.0 μg, difference to control very significant (paired Student's t-test)",480 ng/mL
same,effect on histo-morphological features of the uterus and ovary,[4]; 0.25 μg per day per animal,no effect
same,effect on histo-morphological features of the uterus and ovary,[4]; 0.5 μg per day per animal,no effect
same,effect on histo-morphological features of the uterus and ovary,[4]; 1 μg per day per animal,no effect
same,circulating estrogen (estradiol) level,[5]; 0.25 μg per day per animal,12.1 pg/mL
same,circulating estrogen (estradiol) level,[5]; 0.5 μg per day per animal,12.5 pg/mL
same,circulating levels of estradiol,[5]; dose of 0.5 μg per day per animal as printed in last sentence of b103,2 pg/mL
same,decrease in expression of the uterine marker lactoferrin vs control,[6],1.8 fold
